# Assays:
# Aphis fabae = assay: Black bean aphid spray test on nasturtium plants, mortality after 48 hours; type: in vivo, Black Bean Aphid Aphis fabae (Scop.); details: mixed ages, percent of test compound in sprayed solution
# Experimental: (§1) The compounds in Table I above were tested for insecticidal activity using the following testing procedures. LC50 values, based on the results of these tests and calculated according to dosage-mortality curves, are expressed in Table II.
# Black Bean Aphid Aphis fabae (Scop.)
# Nasturtium plants (Tropaeolum sp.) approximately 5 cm tall, were transplanted into sandy loam soil in small cups and infested with 25-50 black bean aphids of mixed ages. Twenty-four hours later they were sprayed to the point of runoff with 50--50 acetone-water solutions of the test compound. Treated plants were held in the greenhouse and mortality was recorded after 48 hours. Test concentrations ranged from 0.05% downward. The LC-50 value is expressed below in Table II under the heading "BA" in terms of percent of the test compound in the sprayed solution.
# Trichoplusia ni = assay: Cabbage looper larvae leaf-dip test; type: in vivo, Cabbage Looper Trichoplusia ni (Hubner); details: second instar larvae, percent of test compound in solution, 3-5 days
# Experimental: as §1
# Cabbage Looper Trichoplusia ni (Hubner)
# The test compound was diluted in a 50--50 acetone-water solution Cotyledons of hyzini squash (Calabacita abobrinha), approximately 1×1.5 inches, were immersed in the test solutions for 2-3 seconds and placed on a wire screen to dry. The dried leaves were p1aced in petri dishes containing a moistened piece of filter paper and infested with 5 secondinstar cabbage looper larvae. The dishes were placed in a high humidity chamber. Mortality of the larvae was recorded 3-5 days later. Test concentrations ranged from 0.1% downward. The LC-50 value is expressed below in Table II under the heading "CL" in terms of percent of the test compound in solution.
# Tetranychus urticae = assay: Two-spotted mite acaricidal test on pinto bean plants; type: in vivo, two-spotted mite Tetranychus urticae (Koch); details: percent concentration in solution, 5-7 days; for LC50 2-SM A: adults; for LC50 2-SM E: eggs
# Excerpt: Acaricidal Evaluation Test
# The two-spotted mite (2SM) [Tetranychus urticae (Koch)]was employed in tests for miticides. The test procedure was as follows:
# Pinto bean plants (Phaseolus sp.) approximately 10 cm tall, were transplanted into sandy loam soil in small cups and thoroughly infested with two-spotted mites of mixed ages and sexes. Twenty-four hours later the infested plants were inverted and dipped for 2-3 seconds in 50--50 acetone-water solutions of the test compound. Treated plants were held in the greenhouse, and 5-7 days later mortality was determined for both adult mites and the nymphs hatching from eggs which were on the plants at the time of treatment. Test concentrations ranged from 0.05% downward. The LC-50 value is expressed below in Table II under the headings "2SM-A" (i.e., adults) and "2SM-E" (i.e. eggs) in terms of percent concentration of the test compound in the solution.
# [1] = test system: Diabrotica undecimpunctata undecimpunctata; assay: Western spotted cucumber beetle larvae soil test; type: in vivo; details: Diabrotica eggs/larvae; ppm of the test compound in the soil
# Experimental: as §1
# Western Spotted Cucumber Beetle Larvae Diabrotica undecimpunctata undecimpunctata (Mannherheim)
# Ten grams of moist potting soil was placed in a plastic cup. The test compound was dissolved in acetone. A 0.05 ml aliquot of the test sample, diluted to the desired concentration, was added to the soil. The cup was capped and the soil was mixed on a vortex mixer for approximately 15 seconds. An indentation was made on the surface of the soil and approximately 50 Diabrotica eggs were added. The eggs were covered with soil and maintained at room temperature (approximately 70° F. or 21° C.). Four days later a section of Romaine lettuce (Latuca sativa) leaf was placed in the treated cups. One week later the cups were examined for live larvae. Test concentrations ranged from 25 ppm downward. The LC-50 value is expressed below in Table II under the heading "Diabrotica" in terms of ppm of the test compound in the soil.
# Musca domestica = assay: Housefly contact test, mortality after 48 hours; type: in vivo, Housefly Musca domestica; details: μg of the test compound per 25 female flies
# Experimental: as §1
# The test compound was diluted in acetone and aliquots pipetted onto the bottom of aluminum dishes. To ensure even spreading of the chemical on the bottom of the dishes, 1 ml of acetone containing 0.01% peanut oil was also added to each dish. After all solvents had evaporated, the dishes were placed in circular cardboard cages containing 25 female houseflies, 1-2 days old. The cages were covered on the bottom with cellophane and on the top with tulle netting, and each contained a sugar-water saturated cotton plug for maintenance of the flies. Mortality was recorded after 48 hours. Test levels ranged from 100 μg/25 female houseflies downward. The LC-50 value is expressed below in Table II under the heading "HF", in terms of μg of the test compound per 25 female flies.
# Heliothis virescens = assay: Tobacco budworm egg dip test; type: in vivo, Tobacco Budworm Heliothis virescens (Fabricius); details: 2-day old eggs (TBW-E), percent of test compound in solution
# Experimental: as §1
# Tobacco Budworm Heliothis virescens (Fabricius)
# Eggs: Paper towel patches of 2-day old eggs of the tobacco budworm were dipped in acetone solutions of the test compound and placed in petri dishes containing a portion of larval rearing medium. Treated eggs were maintained at 78° F. and mortality was recorded after all control eggs had hatched and the young larvae were feeding on the media. Test concentrations ranged from 0.1% downward. The LC-50 value is expressed below in Table II under the heading "TBW-E" in terms of percent of the test compound in the solution.
Compound,LC50 BA (Aphis fabae) [%],LC50 CL (Trichoplusia ni) [%],LC50 2-SM A (Tetranychus urticae) [%],LC50 2-SM E (Tetranychus urticae) [%],LC50 Diabrotica [1] [ppm],LC50 HF (Musca domestica) [µg],LC50 TBW (Heliothis virescens) [%]
CC(C)C(=Nc1ccc(OCC(F)(F)F)nc1)OCc1ccc(F)c(Oc2ccc(Cl)cc2)c1 [Compound 44],0.0003,0.00017,0.001,0.001,> 25,> 100,0.01
CCOc1ccc(N=C(OCc2cccc(Oc3ccccc3)c2)C(C)C)cn1 [Compound 41],> 0.05,–,> 0.05,> 0.05,> 25,< 100,> 0.1
CC(C)C(=Nc1ccc(C(F)(F)F)cn1)OCc1cccc(Oc2ccccc2)c1 [Compound 4],0.05,0.008,> 0.05,> 0.05,> 25,42,> 0.1
CC(C)C(=Nc1cncc(C(F)(F)F)c1)OCc1cccc(Oc2ccccc2)c1 [Compound 33],> 0.05,0.0035,> 0.05,> 0.05,> 25,5,0.075
C=C(C)C(=Nc1ccc(Cl)nc1)OCc1ccc(F)c(Oc2ccc(Cl)cc2)c1 [Compound 48],< 0.05,< 0.1,> 0.05,> 0.05,> 25,< 100,< 0.1
CC(C)C(=Nc1ccc(OCC(F)(F)F)nc1)OCc1cccc(Oc2ccccc2)c1 [Compound 40],0.0003,0.00029,0.006,0.006,> 25,< 100,0.045
CC(C)(Cl)C(=Nc1nnc(C(F)(F)F)s1)OCc1cccc(Oc2ccccc2)c1 [Compound 9],> 0.05,0.035,> 0.05,> 0.05,> 25,> 100,> 0.1
CC(C)C(=Nc1ccc(OCC(F)(F)F)nc1)OCc1cccc(Oc2ccccc2)n1 [Compound 45],0.001,0.00075,0.03,0.03,> 25,< 100,> 0.1
COC(=O)c1ccc(N=C(OCc2cccc(Oc3ccccc3)c2)C(C)C)o1 [Compound 14],> 0.05,0.01,> 0.05,> 0.05,> 25,> 100,> 0.1
Clc1ccc(N=C(OCc2cccc(Oc3ccccc3)c2)C2CC2)cn1 [Compound 7],> 0.05,0.022,> 0.05,> 0.05,> 25,> 100,> 0.1
C=C(C)C(=Nc1ccc(Cl)nc1)OCc1cccc(Oc2ccccc2)c1 [Compound 47],0.05,< 0.1,> 0.05,> 0.05,> 25,< 100,< 0.1
"CC(C)C(=Nc1ccc(Cl)nc1)OCc1cccc(Oc2ccccc2)c1 [Compound 1, N-(6-Chloro-3-pyridyl)-0-(3-phenoxybenzyl)isobutyrylimidate]",0.001,0.005,> 0.05,> 0.05,> 25,5.5,0.04
Cc1cc(N=C(OCc2cccc(Oc3ccccc3)c2)C(C)C)no1 [Compound 8],> 0.05,0.1,> 0.05,> 0.05,> 25,> 100,> 0.1
CC(C)C(=Nc1ccc(Cl)nc1)OCc1cccc(Oc2ccc(Cl)cc2)c1 [Compound 30],> 0.05,0.0007,> 0.05,> 0.05,> 25,15,0.1
CC(C)C(=Nc1cncc(C(F)(F)F)c1)OCc1ccc(F)c(Oc2ccc(Cl)cc2)c1 [Compound 37],> 0.05,> 0.1,> 0.05,> 0.05,> 25,40,> 0.1
CCCCc1nc2ccc(N=C(OCc3cccc(Oc4ccccc4)c3)C(C)C)cc2o1 [Compound 26],0.05,0.004,> 0.05,> 0.05,–,> 100,> 0.1
CC(C)C(=Nc1ccc(Br)nc1)OCc1cccc(Oc2ccccc2)c1 [Compound 11],0.01,0.01,> 0.05,> 0.05,–,7,> 0.1
